Source: patent publication US8497278B2, “Imidazo[1,2-a]pyridine compounds” (priority 2008, dated 2013)

How the values were obtained:
[1] = biological target: T1, α2 subtype containing GABA-A receptors (Homo sapiens, UniProt P18507+P47869); test: Two-electrode voltage clamp electrophysiology in Xenopus oocytes, potentiation of GABA EC20 response, α2; assay type: cell-based; conditions: 100 nM compound; for activation at 0.1 µM: read-out: Percentage of potentiation alpha2
T1 construct: expressed in transfected cells; host or cells: Xenopus laevis oocytes, cRNA injected
T1 sequence (P47869 29-451): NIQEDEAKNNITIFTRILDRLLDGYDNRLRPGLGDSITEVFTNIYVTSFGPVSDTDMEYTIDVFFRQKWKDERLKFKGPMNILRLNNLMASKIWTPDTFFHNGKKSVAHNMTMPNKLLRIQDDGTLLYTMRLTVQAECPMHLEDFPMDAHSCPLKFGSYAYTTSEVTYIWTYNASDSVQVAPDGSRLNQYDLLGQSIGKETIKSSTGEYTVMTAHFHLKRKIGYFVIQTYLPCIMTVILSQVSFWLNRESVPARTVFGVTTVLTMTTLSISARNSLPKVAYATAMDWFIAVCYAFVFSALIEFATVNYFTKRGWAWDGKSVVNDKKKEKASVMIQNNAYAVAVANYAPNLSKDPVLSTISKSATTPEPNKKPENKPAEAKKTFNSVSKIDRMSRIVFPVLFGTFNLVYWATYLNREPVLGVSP
T1 sequence (P28472 26-473 partner): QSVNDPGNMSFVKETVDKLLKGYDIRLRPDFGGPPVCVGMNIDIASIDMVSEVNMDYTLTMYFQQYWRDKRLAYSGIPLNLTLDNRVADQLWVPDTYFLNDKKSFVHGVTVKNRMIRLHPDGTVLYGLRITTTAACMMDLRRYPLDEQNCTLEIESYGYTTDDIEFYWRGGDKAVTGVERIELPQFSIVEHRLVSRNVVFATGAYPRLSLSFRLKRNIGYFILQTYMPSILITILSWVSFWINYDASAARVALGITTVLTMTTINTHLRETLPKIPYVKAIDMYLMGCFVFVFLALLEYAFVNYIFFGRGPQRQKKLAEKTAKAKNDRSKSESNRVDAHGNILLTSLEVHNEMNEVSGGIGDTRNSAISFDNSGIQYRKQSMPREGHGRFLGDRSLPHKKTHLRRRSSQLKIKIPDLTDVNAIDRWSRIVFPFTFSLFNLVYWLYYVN
T1 sequence (P18507 40-475): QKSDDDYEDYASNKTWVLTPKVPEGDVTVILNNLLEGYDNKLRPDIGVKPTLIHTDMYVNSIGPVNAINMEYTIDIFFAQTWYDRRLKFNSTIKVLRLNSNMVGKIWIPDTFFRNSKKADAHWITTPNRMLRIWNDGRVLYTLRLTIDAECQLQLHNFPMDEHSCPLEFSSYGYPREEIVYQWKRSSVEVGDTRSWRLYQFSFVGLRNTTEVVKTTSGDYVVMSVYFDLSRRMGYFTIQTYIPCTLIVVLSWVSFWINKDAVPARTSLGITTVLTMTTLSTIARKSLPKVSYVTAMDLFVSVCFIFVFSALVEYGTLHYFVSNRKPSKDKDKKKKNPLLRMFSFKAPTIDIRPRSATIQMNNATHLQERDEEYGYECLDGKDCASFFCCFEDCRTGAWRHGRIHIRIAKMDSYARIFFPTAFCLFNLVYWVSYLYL
Summary of the method: (§1)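 Compounds are tested at 100 nM, one per oocyte, against an EC20 GABA (60 μM) response in human α1-, α2-, α3- or α5-β3-γ2L receptors clamped at −80 mV. Oocytes showing rapid desensitization or weak chlordiazepoxide (1 μM) potentiation are excluded.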

[2] = system: central benzodiazepine receptors; test: Central benzodiazepine receptor binding (test of Speth et al.); conditions: 1000 nM of the compound
Summary of the method: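 Radioligand binding by the Speth et al. method. Specific binding is total minus nonspecific binding, the latter measured with excess unlabelled ligand. Compounds screened at 1.0E-09, 1.0E-07 and 1.0E-05 M in single determination; values given as percent inhibition at 1000 nM compound.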

[3] = biological target: T2, α1 subtype containing GABA-A receptors (Homo sapiens, UniProt P14867+P18507); test: Two-electrode voltage clamp electrophysiology in Xenopus oocytes, potentiation of GABA EC20 response, α1; assay type: cell-based; conditions: 100 nM compound; for activation at 0.1 µM: read-out: Percentage of potentiation alpha1
T2 construct: expressed in transfected cells; host or cells: Xenopus laevis oocytes, cRNA injected
T2 sequence (P14867 28-456): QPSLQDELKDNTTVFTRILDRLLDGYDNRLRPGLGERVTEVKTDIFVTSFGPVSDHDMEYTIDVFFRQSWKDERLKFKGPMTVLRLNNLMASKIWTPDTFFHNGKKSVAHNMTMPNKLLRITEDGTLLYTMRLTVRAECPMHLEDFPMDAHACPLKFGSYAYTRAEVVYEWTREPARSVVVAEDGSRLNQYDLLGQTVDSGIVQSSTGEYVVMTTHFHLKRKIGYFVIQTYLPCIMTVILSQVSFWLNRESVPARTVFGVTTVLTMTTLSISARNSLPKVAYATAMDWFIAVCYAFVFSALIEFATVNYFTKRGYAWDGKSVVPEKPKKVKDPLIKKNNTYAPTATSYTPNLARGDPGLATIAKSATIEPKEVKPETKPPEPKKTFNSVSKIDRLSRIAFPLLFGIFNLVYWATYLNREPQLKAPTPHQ
T2 sequence (P28472 26-473 partner): as the sequence (P28472 26-473 partner) above
T2 sequence (P18507 40-475): as the sequence (P18507 40-475) above
Summary of the method: as §1

For `CNC(=O)c1nccn1Cc1c(-c2ccc(Cl)cc2)nc2cccnn12` [Compound 88, 1-((2-(4-chlorophenyl)imidazo[1,2-b]pyridazin-3-yl)methyl)-N-methyl-1H-imidazole-2-carboxamide], the activation at 0.1 µM [1] was 10 to 50%, the “% Inhibition at 1000 nM for CBZD” value [2] was “++ (percentage of inhibition of central BZD site binding is greater than 80% in the presence of 1000 nM of the compound)” and the activation at 0.1 µM [3] was -10 to 10%.
`Cc1nn(C)nc1Cc1c(-c2ccc(Cl)cc2)nc2ccc(Cl)cn12` [Compound 229, 6-Chloro-2-(4-chlorophenyl)-3-((2,5-dimethyl-2H-1,2,3-triazol-4-yl)methyl)imidazo[1,2-a]pyridine] was tested, and the activation at 0.1 µM [1] was 10 to 50%, the “% Inhibition at 1000 nM for CBZD” value [2] was “++ (percentage of inhibition of central BZD site binding is greater than 80% in the presence of 1000 nM of the compound)” and the activation at 0.1 µM [3] was 10 to 50%.
In the case of `Fc1ccc2nc(-c3ccc(Cl)cc3)c(Cn3nccn3)n2c1` [Compound 56, 3-((2H-1,2,3-triazol-2-yl)methyl)-2-(4-chlorophenyl)-6-fluoroH-imidazo[1,2-a]pyridine], the “Percentage of potentiation alpha2” value [1] was “++ (percentage of potentiation is greater than or equal to 50% in the presence of 100 nM of the compound)”, the “% Inhibition at 1000 nM for CBZD” value [2] was “++ (percentage of inhibition of central BZD site binding is greater than 80% in the presence of 1000 nM of the compound)” and the “Percentage of potentiation alpha1” value [3] was “+ (percentage of potentiation is greater than or equal to 10% but less than 50% in the presence of 100 nM of the compound)”.
`Cc1cccc(=O)n1Cc1c(-c2ccc(Cl)cc2)nc2ccc(F)cn12` [Compound 120, 1-((2-(4-chlorophenyl)-6-fluoroimidazo[1,2-a]pyridin-3-yl)methyl)-6-methylpyridin-2(1H)-one] was tested, and the activation at 0.1 µM [1] was ≥ 50%, the “% Inhibition at 1000 nM for CBZD” value [2] was “++ (percentage of inhibition of central BZD site binding is greater than 80% in the presence of 1000 nM of the compound)” and the activation at 0.1 µM [3] was ≥ 50%.
`Cc1ccc2nc(-c3ccc(F)cc3)c(CNc3nc(C)cc(Cl)n3)n2c1` [Compound 160, 4-chloro-N-((2-(4-fluorophenyl)-6-methylimidazo[1,2-a]pyridin-3-yl)methyl)-6-methylpyrimidin-2-amine] was tested, and the activation at 0.1 µM [1] was 10 to 50%, the “% Inhibition at 1000 nM for CBZD” value [2] was “++ (percentage of inhibition of central BZD site binding is greater than 80% in the presence of 1000 nM of the compound)” and the activation at 0.1 µM [3] was 10 to 50%.
With `Cn1c(=O)ccn(Cc2c(-c3ccc(Cl)cc3)nc3ccccn23)c1=O` [Compound 125, 1-((2-(4-chlorophenyl)imidazo[1,2-a]pyridin-3-yl)methyl)-3-methylpyrimidine-2,4(1H,3H)-dione] the activation at 0.1 µM [1] was 10 to 50%, the “% Inhibition at 1000 nM for CBZD” value [2] was “++ (percentage of inhibition of central BZD site binding is greater than 80% in the presence of 1000 nM of the compound)” and the activation at 0.1 µM [3] was -10 to 10%.
`OC[C@H]1CCCN1c1ccnc(NCc2c(-c3ccccc3)nc3ccc(Cl)cn23)n1` [Compound 188, (R)-(1-(2-((6-chloro-2-phenylimidazo[1,2-a]pyridin-3-yl)methylamino)pyrimidin-4-yl)pyrrolidin-2-yl)methanol] was tested, and the activation at 0.1 µM [1] was ≥ 50%, the “% Inhibition at 1000 nM for CBZD” value [2] was “++ (percentage of inhibition of central BZD site binding is greater than 80% in the presence of 1000 nM of the compound)” and the activation at 0.1 µM [3] was ≥ 50%.
`Fc1ccc(-c2nc3ccccn3c2Cn2nccn2)cc1` [Compound 49, 3-((2H-1,2,3-triazol-2-yl)methyl)-2-(4-fluorophenyl)H-imidazo[1,2-a]pyridine] was tested, and the “Percentage of potentiation alpha2” value [1] was “+ (percentage of potentiation is greater than or equal to 10% but less than 50% in the presence of 100 nM of the compound)”, the “% Inhibition at 1000 nM for CBZD” value [2] was “++ (percentage of inhibition of central BZD site binding is greater than 80% in the presence of 1000 nM of the compound)” and the “Percentage of potentiation alpha1” value [3] was 0 (percentage of potentiation is between about 10% to about −10%).
With `Cc1noc(-c2nccn2Cc2c(-c3ccc(Cl)cc3)nc3ccccn23)n1` [Compound 27, 2-(4-chlorophenyl)-3-((2-(3-methyl-1,2,4-oxadiazol-5-yl)-1H-imidazol-1-yl)methyl)H-imidazo[1,2-a]pyridine] the “Percentage of potentiation alpha2” value [1] was “+ (percentage of potentiation is greater than or equal to 10% but less than 50% in the presence of 100 nM of the compound)”, the “% Inhibition at 1000 nM for CBZD” value [2] was “++ (percentage of inhibition of central BZD site binding is greater than 80% in the presence of 1000 nM of the compound)” and the “Percentage of potentiation alpha1” value [3] was “+ (percentage of potentiation is greater than or equal to 10% but less than 50% in the presence of 100 nM of the compound)”.
With `O=c1[nH]c(=O)n(Cc2c(-c3ccc(Cl)cc3)nc3ccccn23)cc1F` [Compound 127, 1-((2-(4-chlorophenyl)imidazo[1,2-a]pyridin-3-yl)methyl)-5-fluoropyrimidine-2,4(1H,3H)-dione] the activation at 0.1 µM [1] was 10 to 50%, the “% Inhibition at 1000 nM for CBZD” value [2] was “+ (percentage of inhibition of central BZD site binding is greater than 50% but less than 80% in the presence of 1000 nM of the compound)” and the activation at 0.1 µM [3] was -10 to 10%.
For `COC(=O)c1ncnn1Cc1c(-c2ccccc2)nc2ccc(Cl)cn12` [Compound 44, 2-(6-Chloro-2-phenyl-imidazo[1,2-a]pyridin-3-ylmethyl)-2H-[1,2,4]triazole-3-carboxylic acid methyl ester], the activation at 0.1 µM [1] was -10 to 10%, the “% Inhibition at 1000 nM for CBZD” value [2] was “++ (percentage of inhibition of central BZD site binding is greater than 80% in the presence of 1000 nM of the compound)” and the activation at 0.1 µM [3] was -10 to 10%.
In the case of `Cc1ccc(-c2nc3ccc(C)cn3c2Cn2cccn2)cc1` [Compound 8, 3-((1H-pyrazol-1-yl)methyl)-6-methyl-2-p-tolylH-imidazo[1,2-a]pyridine], the “Percentage of potentiation alpha2” value [1] was “+ (percentage of potentiation is greater than or equal to 10% but less than 50% in the presence of 100 nM of the compound)”, the “% Inhibition at 1000 nM for CBZD” value [2] was “++ (percentage of inhibition of central BZD site binding is greater than 80% in the presence of 1000 nM of the compound)” and the “Percentage of potentiation alpha1” value [3] was “++ (percentage of potentiation is greater than or equal to 50% in the presence of 100 nM of the compound)”.
With `Fc1ccc(-c2nc3ccc(Cl)cn3c2Cn2cncn2)cc1` [Compound 62, 3-((1H-1,2,4-triazol-1-yl)methyl)-6-chloro-2-(4-fluorophenyl)H-imidazo[1,2-a]pyridine] the “Percentage of potentiation alpha2” value [1] was 0 (percentage of potentiation is between about 10% to about −10%), the “% Inhibition at 1000 nM for CBZD” value [2] was “++ (percentage of inhibition of central BZD site binding is greater than 80% in the presence of 1000 nM of the compound)” and the “Percentage of potentiation alpha1” value [3] was “+ (percentage of potentiation is greater than or equal to 10% but less than 50% in the presence of 100 nM of the compound)”.
For `CN(C)CCNc1cc(Cc2c(-c3ccc(Cl)cc3)nc3ccccn23)ncn1` [Compound 243, N^1-(6-((2-(4-chlorophenyl)imidazo[1,2-a]pyridin-3-yl)methyl)pyrimidin-4-yl)-N^2,N^2-dimethylethane-1,2-diamine], the activation at 0.1 µM [1] was 10 to 50%, the “% Inhibition at 1000 nM for CBZD” value [2] was “++ (percentage of inhibition of central BZD site binding is greater than 80% in the presence of 1000 nM of the compound)” and the activation at 0.1 µM [3] was 10 to 50%.
With `O=c1c2ccccc2[nH]n1Cc1c(-c2ccc(Cl)cc2)nc2ccccn12` [Compound 118, 2-((2-(4-chlorophenyl)imidazo[1,2-a]pyridin-3-yl)methyl)-1H-indazol-3(2H)-one] the activation at 0.1 µM [1] was ≥ 50%, the “% Inhibition at 1000 nM for CBZD” value [2] was “++ (percentage of inhibition of central BZD site binding is greater than 80% in the presence of 1000 nM of the compound)” and the activation at 0.1 µM [3] was 10 to 50%.
For `Cc1nnc(Cc2c(-c3ccccc3)nc3ccc(Cl)cn23)[nH]1` [Compound 234, 6-chloro-3-((5-methyl-4H-1,2,4-triazol-3-yl)methyl)-2-phenylimidazo[1,2-a]pyridine], the activation at 0.1 µM [1] was ≥ 50%, the “% Inhibition at 1000 nM for CBZD” value [2] was “++ (percentage of inhibition of central BZD site binding is greater than 80% in the presence of 1000 nM of the compound)” and the activation at 0.1 µM [3] was 10 to 50%.
In the case of `CNC(=O)c1ncnn1Cc1c(-c2ccc(Cl)cc2)nc2ccc(Cl)cn12` [Compound 81, 2-[6-Chloro-2-(4-chloro-phenyl)-imidazo[1,2-a]pyridin-3-ylmethyl]-2H-[1,2,4]triazole-3-carboxylic acid methylamide], the activation at 0.1 µM [1] was 10 to 50%, the “% Inhibition at 1000 nM for CBZD” value [2] was “++ (percentage of inhibition of central BZD site binding is greater than 80% in the presence of 1000 nM of the compound)” and the activation at 0.1 µM [3] was 10 to 50%.
`OC1CCN(c2cncc(Cc3c(-c4ccc(Cl)cc4)nc4ccccn34)n2)C1` (stereo not drawn) [Compound 191, 1-(6-((2-(4-chlorophenyl)imidazo[1,2-a]pyridin-3-yl)methyl)pyrazin-2-yl)pyrrolidin-3-ol] was tested, and the activation at 0.1 µM [1] was 10 to 50%, the “% Inhibition at 1000 nM for CBZD” value [2] was “++ (percentage of inhibition of central BZD site binding is greater than 80% in the presence of 1000 nM of the compound)” and the activation at 0.1 µM [3] was 10 to 50%.
With `Cc1ccc(-c2nc3ccc(C)cn3c2Cn2cncn2)cc1` [Compound 7, 3-((1H-1,2,4-triazol-1-yl)methyl)-6-methyl-2-p-tolylH-imidazo[1,2-a]pyridine] the “Percentage of potentiation alpha2” value [1] was “+ (percentage of potentiation is greater than or equal to 10% but less than 50% in the presence of 100 nM of the compound)”, the “% Inhibition at 1000 nM for CBZD” value [2] was “++ (percentage of inhibition of central BZD site binding is greater than 80% in the presence of 1000 nM of the compound)” and the “Percentage of potentiation alpha1” value [3] was “+ (percentage of potentiation is greater than or equal to 10% but less than 50% in the presence of 100 nM of the compound)”.
